Entries after “also recorded” stand apart in the source; their conditions may differ.
Key:
[1] = system: ROS production from PMA activated RAW. 267 cells (murine macrophages); test: Lucigenin enhanced (myeloperoxidase independent) oxidative burst; assay type: cell-based; details: lucigenin enhanced, PMA activated RAW. 267 cells
Protocol: Intracellular effect was determined using human peripheral whole blood phagocytes and isolated neutrophils and from mice peritoneum macrophages, where luminol-enhanced chemillumenescence assay was applied. The effect on myeloperoxidase independent ROS production was determined using lucigenin on murine macrophages RAW.267 cells. […] Table 2. […] 267 cells (murine macrophages). DPI is used as standard drug. Reading presents mean±SD of three determinations.

[2] = system: ROS production from human peripheral whole blood phagocytes; test: Luminol enhanced chemiluminescence oxidative burst, whole blood; assay type: cell-based; details: luminol enhanced, serum opsonized zymosan, read-out: Myeloperoxidase dependent Oxidative Burst (IC50 μg/mL) Whole blood
Protocol: (§1) Intracellular effect was determined using human peripheral whole blood phagocytes and isolated neutrophils and from mice peritoneum macrophages, where luminol-enhanced chemillumenescence assay was applied. The effect on myeloperoxidase independent ROS production was determined using lucigenin on murine macrophages RAW.267 cells.
(§2) Table 2. […] 267 cells (murine macrophages). DPI is used as standard drug. Reading presents mean±SD of three determinations.
(§3) Luminol enhanced chemiluminescence technique was applied to study the effect of compound on ROS from phagocytes, Using whole blood, neutrophil and macrophages Briefly, 25 μL diluted whole blood (1:50 dilution in sterile HBSS^++) or 25 μL of PMNs (1×10^6), or 25 μL of isolated macrophages (1×10^6) were incubated with 25 μL of compound in triplicates and using three different concentrations (1, 10 and 100 μg/mL) using white 96 wells plates. Wells received HBSS^++ and cells only without compound served as positive control. 25 μL of serum opsonized zymosan-A (SOZ), followed by 25 μL luminol (7×10^−5 M), was added to each well to maintain a volume of 100 μL/well. Plates were then incubated at 37° C. for 30 minutes in the thermostated chamber of the luminometer. Results were monitored as relative light unit (RLU) reading, with peak and total integral values set with repeated scans at 60 seconds intervals, and 1 second points measuring time.

[3] = system: ROS production from human neutrophils; test: Luminol enhanced chemiluminescence oxidative burst, isolated neutrophils; assay type: cell-based; details: Neutrophil, serum opsonized zymosan, read-out: Myeloperoxidase dependent Oxidative Burst (IC50 μg/mL) Neutrophils
Protocol: as §1, §2
Heparinized blood was obtained by vein puncture aseptically, from healthy volunteers (25-38 years age). The buffy coat containing polymorhonuclear neutrophils (PMNs) was collected by dextran sedimentation, and cells were isolated after the LSM density gradient centrifugation. […]
as §3, with “Wells received HBSS^++ and cells only without compound served as positive control. 25 μL of serum opsonized zymosan-A (SOZ), followed by 25 μL luminol (7×10^−5 M), was added to each well to maintain a volume of 100 μL/well. Plates were then incubated at 37° C. for 30 minutes in the thermostated chamber of the luminometer.” left out

[4] = system: ROS production from mice peritoneal macrophages; test: Luminol enhanced chemiluminescence oxidative burst, mice peritoneal macrophages; assay type: cell-based; details: Mus musculus, Peritoneal macrophage, serum opsonized zymosan, read-out: Myeloperoxidase dependent Oxidative Burst (IC50 μg/mL) Macrophages
Protocol: as §1, §2
NMRI mice of 25 to 30 gm weight were injected aseptically with 1 mL of heat inactivated fetal bovine serum (FBS) in the peritoneum cavity, using sterile 1 mL syringe and mice were kept for further 72 h. […] Cells were counted and concentration was adjusted to 1×10^6/mL for chemiluminescence assay.
as §3, with “Wells received HBSS^++ and cells only without compound served as positive control. 25 μL of serum opsonized zymosan-A (SOZ), followed by 25 μL luminol (7×10^−5 M), was added to each well to maintain a volume of 100 μL/well. Plates were then incubated at 37° C. for 30 minutes in the thermostated chamber of the luminometer.” left out

[5] = system: serum TNF-α; test: Adjuvant induced arthritis model, serum TNF-α; assay type: in vivo, Sprague Dawley rats; details: AIA rats, daily intraperitoneal; Patuletin 25 mg/kg, indomethacin 5 mg/kg
Protocol: (§4) All studies were carried out using Female Sprague Dawley (SD) rats weighing 150-250 gms. Animals were kept at 21±2° C. and on a 12-h light/dark cycle, received standardized pelleted diet and tap water. Experiments were performed under the ethical guidelines of the International Association for the study of pain in conscious animals. Each group contains 12 animals with randomly distributed weights into each treatment group.
(§5) Arthritis was induced by injecting freshly prepared 100 μL of 1 mg suspension of lyophilized Mycobacterium tuberculosis H37Ra (MT H37Ra; DIFCO Laboratories, Detroit, Mich., USA), subcutaneously at the rat tail base using sterile hypodermic needle. Inoculation was carried out under anesthesia with a combination of 20 mg/kg ketamine and 5 mg/kg xylazine, injected intraperitoneally. Compound and the reference drug were administered daily, intraperitoneally using sterile syringes. The positive control received vehicle (5% DMSO+PBS) or saline only; treatment groups received test compounds (25 mg/kg), whereas reference group received indomethacin (5 mg/kg). The doses of the test compounds were selected after preliminary dose finding studies. […]
(§6) The quantitative measurement of TNF-α and IL-1β was done in serum of all groups of animals including arthritic and non-arthritic using commercial ELISA assay kits (Abcam, USA) according to the manufacturer's instructions. […]

[6] = system: serum IL-1β; test: Adjuvant induced arthritis model, serum IL-1β; assay type: in vivo, Sprague Dawley rats; details: AIA rats, daily intraperitoneal; Patuletin 25 mg/kg, indomethacin 5 mg/kg
Protocol: as §4, §5, §6

[7] = system: serum nitric oxide; test: Adjuvant induced arthritis model, serum nitric oxide; assay type: in vivo, Sprague Dawley rats; details: AIA rats, daily intraperitoneal; Patuletin 25 mg/kg, indomethacin 5 mg/kg
Protocol: as §4
(§7) Arthritis was induced by injecting freshly prepared 100 μL of 1 mg suspension of lyophilized Mycobacterium tuberculosis H37Ra (MT H37Ra; DIFCO Laboratories, Detroit, Mich., USA), subcutaneously at the rat tail base using sterile hypodermic needle. […]
(§8) Peroxide (PO) and nitric oxide (NO), in serum were determined in the serum samples of both the normal and arthritic groups, using quantitative colorimetric assay kits, i.e., the Quantichrom ™ Nitric Oxide Assay Kit, and the Quantichrome™ Peroxide assay kit Diox-250 (BioAssay Systems, Hayward, Calif., USA). […] The samples were analyzed in duplicates using 96-well plate and the plate was read at 540 nm. The Quantichrome™ Peroxide assay kit Diox −250 system is an improved method which utilizes the oxidation of Fe^++ by peroxide present in the analyzed sample resulting in formation of purple complex that gives the accurate measure of peroxide level in the sample when read at 540-610 nm.

[8] = system: serum peroxide; test: Adjuvant induced arthritis model, serum peroxide; assay type: in vivo, Sprague Dawley rats; details: AIA rats, daily intraperitoneal; Patuletin 25 mg/kg, indomethacin 5 mg/kg
Protocol: as §4, §7, §8

[9] = system: rheumatoid factor; test: Adjuvant induced arthritis model, serum RA factor; assay type: in vivo, Sprague Dawley rats; details: AIA rats, daily intraperitoneal; Patuletin 25 mg/kg, indomethacin 5 mg/kg
Protocol: as §4
Arthritis was induced by injecting freshly prepared 100 μL of 1 mg suspension of lyophilized Mycobacterium tuberculosis H37Ra (MT H37Ra; DIFCO Laboratories, Detroit, Mich., USA), subcutaneously at the rat tail base using sterile hypodermic needle. Inoculation was carried out under anesthesia with a combination of 20 mg/kg ketamine and 5 mg/kg xylazine, injected intraperitoneally. Compound and the reference drug were administered daily, intraperitoneally using sterile syringes. […]
Measurement of RA factor in rat serum was determined using Tina-quant RFII Kit (Roche Diagnostics, USA) and automated analyzers according to manufacturer's instructions. The test principle involves the reaction of latex bound heat inactivated IgG (antigen) with RF antibodies in the sample to form Ag/Ab complex resulting in agglutination which can be measured turbidimetrically.

[10] = system: knee joints of arthritic rats; test: Adjuvant induced arthritis model, histopathology of knee joints (H & E); assay type: in vivo, Sprague Dawley rats; details: H & E staining
Protocol: as §4
Arthritis was induced by injecting freshly prepared 100 μL of 1 mg suspension of lyophilized Mycobacterium tuberculosis H37Ra (MT H37Ra; DIFCO Laboratories, Detroit, Mich., USA), subcutaneously at the rat tail base using sterile hypodermic needle. Inoculation was carried out under anesthesia with a combination of 20 mg/kg ketamine and 5 mg/kg xylazine, injected intraperitoneally. Compound and the reference drug were administered daily, intraperitoneally using sterile syringes. The positive control received vehicle (5% DMSO+PBS) or saline only; treatment groups received test compounds (25 mg/kg), whereas reference group received indomethacin (5 mg/kg). The doses of the test compounds were selected after preliminary dose finding studies. The treatment was started on the same day after vaccination.
The animals were sacrificed at the end of the experiment and samples were taken from the knee joints. Sample fixation were done using 10% formalin following decalcification. The samples were then processed, embedded, cut, mounted and stained with hematoxylin and eosin (H & E) dye for microscopic evaluation.

[11] = system: PHA activated T cells isolated from human peripheral blood; test: Thymidine incorporation T cell proliferation assay (PHA activated); assay type: cell-based; details: 72 h
Protocol: Heparinized blood was obtained by vein puncture aseptically from healthy volunteers (25-38 years age). Blood (10 mL) was mixed with incomplete RPMI, layered on 5 mL of Lymphocyte separation medium and centrifuged at 400 g for 20 min at room temperature. Buffy layer was collected and mixed with incomplete RPMI and centrifuged at 4° C. for 10 min at 300 g. Cells were obtained after the RBCs (if any) lysis using hypotonic solution, and washed at 4° C. for 10 min at 300 g. The cells were then suspended in complete RPMI containing 5% FBS and their concentration was adjusted to 2×10^6 cells/mL for T-cell proliferation assay.
Cell proliferation assay was conducted through standard thymidine incorporation technique. Briefly, isolated T-cells from peripheral blood of healthy individuals were plated at a concentration of 2×10^6 cells/mL in a round bottom 96-well tissue culture plates. Cells were stimulated with 7.5 μg/mL of PHA. […] The plate was then incubated for 72 hours at 37° C. in 5% CO2 incubator. After 72 hours, cultures were pulsed with 0.5 μCi/well tritiated thymidine (Amersham Pharmacia Biotech), and further incubated for 18 h. Cells were harvested onto a glass fiber filters using cell harvester (Innotech, Dottikon, Switzerland). The level of the thymidine incorporated into the cells was measured by a liquid scintillation counter (LS 6500, Beckman Coulter, Fullerton, Calif., USA). Results were expressed as mean count per minute (CPM). The inhibitory activity of compounds on T-lymphocyte proliferation was calculated using the following formula: […]

[12] = system: TNF-α production; test: TNF-α production from PMA differentiated, LPS activated THP-1 cells (ELISA); assay type: cell-based, human; details: 4 h
Protocol: The symbol * and δ represents the P≦0.03 and P≦0.006, respectively.
FIG. 2 depicts the effect of pentoxyfillin (PTX) on TNF-α production (pg/mL) Human monocytic leukemia THP-1 cells were differentiated and activated with 20 ng/mL of PMA and 50 ng/mL of LPS, respectively and incubated with different concentrations of PTX for 4h, the supernatant was analyzed for the level of TNF-α by ELISA. The symbol * represents P≦of 0.03.
THP-1 (human monocytic leukemia) cells were maintained in RPMI-1640 supplemented with 10% FBS, 2 mmol/L glutamine, 5.5 mmol/L glucose, 50 μmol/L mercaptoethanol, 1 mmol/L sodium pyruvate, and 10 mmol/L HEPES and incubated at 37° C. in 5% CO2. Cells were grown in […] culture flask until they attained 70% confluency. Cells were then plated in 24-well tissue culture plates at a concentration of 2.5×10^5 cells/mL. Cells were differentiated into macrophages using PMA at a final concentration of 20 ng/mL and further incubated at 37° C. in 5% CO2 environment for 24 h. […] After addition of the compound cells were then incubated for 4 h for TNF-α production and 18 h for IL-1β production at 37° C. in 5% CO2. The supernatants were harvested and analyzed for the level of TNF-α and IL-1β, by human TNF-α and IL-1β Duo set ELISA kits, and according to the manufacturer's instructions.

## [Cl-].c1ccc2c(c1)[I+]c1ccccc1-2 [DPI, reference compound]
[1]
  Myeloperoxidase independent Oxidative Burst (IC50 μg/mL) on macrophages: 1.6 ± 0.1 µg/mL

## CC(C)Cc1ccc(C(C)C(=O)O)cc1 (centres unmarked) [Ibuprofen, reference compound]
[2]
  IC50: 11.2 ± 1.9 µg/mL
[3]
  IC50: 2.5 ± 0.6 µg/mL
[4]
  IC50: 16.9 ± 2.5 µg/mL

## COc1ccc2c(c1)c(CC(=O)O)c(C)n2C(=O)c1ccc(Cl)cc1 [Indomethacin, reference compound]
[5]
  level of TNF-α in serum versus arthritic control group: marked decrease
[6]
  level of IL-1β in serum versus arthritic control group: significant decrease; also recorded: marked decrease
[7]
  level of nitric oxide in serum versus arthritic control group: marked reduction; also recorded: significant decrease
[8]
  level of peroxide in serum versus arthritic control group: decrease; also recorded: non-significant reduction
[9]
  level of RA factor (rheumatoid factor) in serum versus arthritic control group: marked decrease
[10]
  histopathology of knee joints (in words) versus arthritic control rats: less infiltration of lymphocytes and minimal bone destruction
[10]; normal control score 0, arthritic control score 4
  histopathology score of knee joints: 2

## C[C@]12C=CC(=O)C=C1CC[C@@H]1[C@@H]2[C@@H](O)C[C@@]2(C)[C@H]1CC[C@]2(O)C(=O)CO [Prednisolone]
[11]
  Human T cell proliferation (IC50 μg/mL): <0.62 µg/mL
[11]; Homo sapiens, T-cell, read-out: Human T cell proliferation (IC50 μg/mL)
  IC50: < 0.62 µg/mL

## CC(=O)CCCCn1c(=O)c2c(ncn2C)n(C)c1=O [pentoxyfillin, reference compound]
[12]
  inhibition of TNF-α production (IC50): 94.8 µg/mL
